Assay results reported in ChEMBL document CHEMBL1275577, “Study of the in vitro activities of rifaximin and comparator agents against 536 anaerobic intestinal bacteria from the perspective of potential utility in pathology involving bowel flora” (Antimicrob Agents Chemother, 2009).
Values after ≈ are worked out from the molar mass of the structure shown.

Tests used:
[1] = test system: Ruminococcus lactaris; test: Antimicrobial activity against Ruminococcus lactaris by Wadsworth agar dilution method; type: functional
[2] = test system: Desulfovibrio vulgaris; test: Antimicrobial activity against Desulfovibrio vulgaris by Wadsworth agar dilution method; type: functional; conditions: Nitratidesulfovibrio vulgaris
[3] = test system: Eggerthella lenta; test: Antimicrobial activity against Eggerthella lenta by Wadsworth agar dilution method; type: functional
[4] = test system: Lacticaseibacillus rhamnosus; test: Antimicrobial activity against Lactobacillus rhamnosus by Wadsworth agar dilution method; type: functional
[5] = test system: Enterocloster clostridioformis; test: Antimicrobial activity against Clostridium clostridioforme by Wadsworth agar dilution method; type: functional
[6] = test system: Fusobacterium nucleatum; test: Antimicrobial activity against Fusobacterium nucleatum by Wadsworth agar dilution method; type: functional
[7] = test system: Limosilactobacillus reuteri; test: Antimicrobial activity against Lactobacillus reuteri by Wadsworth agar dilution method; type: functional
[8] = test system: Propionibacterium propionicum; test: Antimicrobial activity against Propionibacterium propionicum by Wadsworth agar dilution method; type: functional; conditions: Arachnia propionica
[9] = test system: Clostridium subterminale; test: Antimicrobial activity against Clostridium subterminale by Wadsworth agar dilution method; type: functional
[10] = test system: Lactobacillus jensenii; test: Antimicrobial activity against Lactobacillus jensenii by Wadsworth agar dilution method; type: functional
[11] = test system: Eubacterium rectale; test: Antimicrobial activity against Eubacterium rectale by Wadsworth agar dilution method; type: functional; conditions: Agathobacter rectalis
[12] = test system: Eubacterium biforme; test: Antimicrobial activity against Eubacterium biforme by Wadsworth agar dilution method; type: functional; conditions: Holdemanella biformis
[13] = test system: Clostridium hathewayi; test: Antimicrobial activity against Clostridium hathewayi by Wadsworth agar dilution method; type: functional; conditions: Hungatella hathewayi
[14] = test system: Blautia luti; test: Antimicrobial activity against Ruminococcus luti by Wadsworth agar dilution method; type: functional
[15] = test system: Coprobacillus cateniformis; test: Antimicrobial activity against Coprobacillus cateniformis by Wadsworth agar dilution method; type: functional
[16] = test system: Bifidobacterium dentium; test: Antimicrobial activity against Bifidobacterium dentium by Wadsworth agar dilution method; type: functional
[17] = test system: Cutibacterium acnes; test: Antimicrobial activity against Propionibacterium acnes by Wadsworth agar dilution method; type: functional
[18] = test system: Prevotella intermedia; test: Antimicrobial activity against Prevotella intermedia by Wadsworth agar dilution method; type: functional
[19] = test system: Bacteroides uniformis; test: Antimicrobial activity against Bacteroides uniformis by Wadsworth agar dilution method; type: functional
[20] = test system: Schaalia meyeri; test: Antimicrobial activity against Actinomyces meyeri by Wadsworth agar dilution method; type: functional
[21] = test system: Holdemania filiformis; test: Antimicrobial activity against Holdemania filiformis by Wadsworth agar dilution method; type: functional
[22] = test system: Flavonifractor plautii; test: Antimicrobial activity against Clostridium orbiscindens by Wadsworth agar dilution method; type: functional
[23] = Antimicrobial activity against Bifidobacterium infantis by Wadsworth agar dilution method; type: functional, Bifidobacterium longum subsp. infantis; conditions: Bifidobacterium longum
[24] = test system: Bacteroides ovatus; test: Antimicrobial activity against Bacteroides ovatus by Wadsworth agar dilution method; type: functional
[25] = test system: Bacteroides caccae; test: Antimicrobial activity against Bacteroides caccae by Wadsworth agar dilution method; type: functional
[26] = test system: Bacteroides thetaiotaomicron; test: Antimicrobial activity against Bacteroides thetaiotaomicron by Wadsworth agar dilution method; type: functional
[27] = test system: Clostridium perfringens; test: Antimicrobial activity against Clostridium perfringens by Wadsworth agar dilution method; type: functional
[28] = test system: Lactiplantibacillus plantarum; test: Antimicrobial activity against Lactobacillus plantarum by Wadsworth agar dilution method; type: functional
[29] = test system: Parvimonas micra; test: Antimicrobial activity against Peptostreptococcus micros by Wadsworth agar dilution method; type: functional
[30] = test system: Hoylesella loescheii; test: Antimicrobial activity against Prevotella loescheii by Wadsworth agar dilution method; type: functional
[31] = test system: Clostridium disporicum; test: Antimicrobial activity against Clostridium disporicum by Wadsworth agar dilution method; type: functional
[32] = test system: Clostridium butyricum; test: Antimicrobial activity against Clostridium butyricum by Wadsworth agar dilution method; type: functional
[33] = test system: Tissierella praeacuta; test: Antimicrobial activity against Clostridium hastiforme by Wadsworth agar dilution method; type: functional
[34] = test system: Desulfovibrio fairfieldensis; test: Antimicrobial activity against Desulfovibrio fairfieldensis by Wadsworth agar dilution method; type: functional
[35] = test system: Clostridium septicum; test: Antimicrobial activity against Clostridium septicum by Wadsworth agar dilution method; type: functional
[36] = test system: Peptoniphilus harei; test: Antimicrobial activity against Peptoniphilus harei by Wadsworth agar dilution method; type: functional
[37] = test system: Fusobacterium varium; test: Antimicrobial activity against Fusobacterium varium by Wadsworth agar dilution method; type: functional
[38] = test system: Clostridium sp.; test: Antimicrobial activity against Clostridium sp. by Wadsworth agar dilution method; type: functional
[39] = test system: Clostridioides difficile; test: Antimicrobial activity against Clostridium difficile by Wadsworth agar dilution method; type: functional
[40] = test system: Clostridium lactatifermentans; test: Antimicrobial activity against Clostridium lactatifermentans by Wadsworth agar dilution method; type: functional; conditions: Anaerotignum lactatifermentans
[41] = test system: Peptoniphilus asaccharolyticus; test: Antimicrobial activity against Peptoniphilus asaccharolyticus by Wadsworth agar dilution method; type: functional
[42] = test system: Clostridium scindens; test: Antimicrobial activity against Clostridium scindens by Wadsworth agar dilution method; type: functional
[43] = test system: Parabacteroides merdae; test: Antimicrobial activity against Parabacteroides merdae by Wadsworth agar dilution method; type: functional
[44] = test system: Clostridium tertium; test: Antimicrobial activity against Clostridium tertium by Wadsworth agar dilution method; type: functional
[45] = test system: Bifidobacterium adolescentis; test: Antimicrobial activity against Bifidobacterium adolescentis by Wadsworth agar dilution method; type: functional
[46] = test system: Clostridium cadaveris; test: Antimicrobial activity against Clostridium cadaveris by Wadsworth agar dilution method; type: functional
[47] = test system: Collinsella aerofaciens; test: Antimicrobial activity against Colinsella aerofaciens by Wadsworth agar dilution method; type: functional
[48] = test system: Clostridium leptum; test: Antimicrobial activity against Clostridium leptum by Wadsworth agar dilution method; type: functional

With `CN[C@H](CC(C)C)C(=O)N[C@H]1C(=O)N[C@@H](CC(N)=O)C(=O)N[C@H]2C(=O)N[C@H]3C(=O)N[C@H](C(=O)N[C@H](C(=O)O)c4cc(O)cc(O)c4-c4cc3ccc4O)[C@H](O)c3ccc(c(Cl)c3)Oc3cc2cc(c3O[C@@H]2O[C@H](CO)[C@@H](O)[C@H](O)[C@H]2O[C@H]2C[C@](C)(N)[C@H](O)[C@H](C)O2)Oc2ccc(cc2Cl)[C@H]1O` [VANCOMYCIN] the MIC50 [1] was 0.5 µg/mL (≈ 0.345 µM), the MIC90 [1] was 1 µg/mL (≈ 0.69 µM) and the MIC50 [2] was over 1020 µg/mL. It also gave an MIC90 [2] of over 1020 µg/mL, an MIC50 [3] of 1 µg/mL (≈ 0.69 µM) and an MIC90 [3] of 64 µg/mL (≈ 44.2 µM). The MIC50 [4] was 1 µg/mL (≈ 0.69 µM), the MIC90 [4] was 64 µg/mL (≈ 44.2 µM) and the MIC50 [5] was 2 µg/mL (≈ 1.38 µM). For the same compound, the MIC90 [5] was 2 µg/mL (≈ 1.38 µM), the MIC50 [6] was 256 µg/mL (≈ 177 µM) and the MIC90 [6] was 512 µg/mL (≈ 353 µM). It also gave an MIC50 [7] of 1 µg/mL (≈ 0.69 µM), an MIC90 [7] of 64 µg/mL (≈ 44.2 µM) and an MIC50 [8] of 1 µg/mL (≈ 0.69 µM). The MIC90 [8] was 64 µg/mL (≈ 44.2 µM), the MIC50 [9] was 1 µg/mL (≈ 0.69 µM) and the MIC90 [9] was 4 µg/mL (≈ 2.76 µM). For the same compound, the MIC50 [10] was 1 µg/mL (≈ 0.69 µM), the MIC90 [10] was 64 µg/mL (≈ 44.2 µM) and the MIC50 [11] was 1 µg/mL (≈ 0.69 µM). For the same compound, the MIC90 [11] was 64 µg/mL (≈ 44.2 µM), the MIC50 [12] was 1 µg/mL (≈ 0.69 µM) and the MIC90 [12] was 64 µg/mL (≈ 44.2 µM). The MIC50 [13] was 1 µg/mL (≈ 0.69 µM), the MIC90 [13] was 1 µg/mL (≈ 0.69 µM) and the MIC50 [14] was 0.5 µg/mL (≈ 0.345 µM). For the same compound, the MIC90 [14] was 1 µg/mL (≈ 0.69 µM), the MIC50 [15] was 1 µg/mL (≈ 0.69 µM) and the MIC90 [15] was 64 µg/mL (≈ 44.2 µM). The MIC50 [16] was 1 µg/mL (≈ 0.69 µM), the MIC90 [16] was 64 µg/mL (≈ 44.2 µM) and the MIC50 [17] was 1 µg/mL (≈ 0.69 µM). For the same compound, the MIC90 [17] was 64 µg/mL (≈ 44.2 µM), the MIC50 [18] was 128 µg/mL (≈ 88.3 µM) and the MIC90 [18] was 256 µg/mL (≈ 177 µM). For the same compound, the MIC [19] was 64 µg/mL (≈ 44.2 µM), the MIC50 [19] was 64 µg/mL (≈ 44.2 µM) and the MIC90 [19] was 128 µg/mL (≈ 88.3 µM). The MIC50 [20] was 1 µg/mL (≈ 0.69 µM), the MIC90 [20] was 64 µg/mL (≈ 44.2 µM) and the MIC50 [21] was 1 µg/mL (≈ 0.69 µM). It also gave an MIC90 [21] of 64 µg/mL (≈ 44.2 µM), an MIC50 [22] of 8 µg/mL (≈ 5.52 µM) and an MIC90 [22] of 8 µg/mL (≈ 5.52 µM). For the same compound, the MIC50 [23] was 1 µg/mL (≈ 0.69 µM), the MIC90 [23] was 64 µg/mL (≈ 44.2 µM) and the MIC50 [24] was 128 µg/mL (≈ 88.3 µM). It also gave an MIC90 [24] of 128 µg/mL (≈ 88.3 µM), an MIC50 [25] of 32 µg/mL (≈ 22.1 µM) and an MIC90 [25] of 64 µg/mL (≈ 44.2 µM). The MIC50 [26] was 128 µg/mL (≈ 88.3 µM), the MIC90 [26] was 256 µg/mL (≈ 177 µM) and the MIC50 [27] was 1 µg/mL (≈ 0.69 µM). For the same compound, the MIC90 [27] was 1 µg/mL (≈ 0.69 µM), the MIC50 [28] was 1 µg/mL (≈ 0.69 µM) and the MIC90 [28] was 64 µg/mL (≈ 44.2 µM). It also gave an MIC50 [29] of 0.5 µg/mL (≈ 0.345 µM), an MIC90 [29] of 1 µg/mL (≈ 0.69 µM) and an MIC50 [30] of 128 µg/mL (≈ 88.3 µM). The MIC90 [30] was 256 µg/mL (≈ 177 µM), the MIC50 [31] was 1 µg/mL (≈ 0.69 µM) and the MIC90 [31] was 4 µg/mL (≈ 2.76 µM). It also gave an MIC50 [32] of 1 µg/mL (≈ 0.69 µM), an MIC90 [32] of 4 µg/mL (≈ 2.76 µM) and an MIC50 [33] of 1 µg/mL (≈ 0.69 µM). For the same compound, the MIC90 [33] was 4 µg/mL (≈ 2.76 µM), the MIC50 [34] was over 1020 µg/mL and the MIC90 [34] was over 1020 µg/mL. For the same compound, the MIC50 [35] was 1 µg/mL (≈ 0.69 µM), the MIC90 [35] was 4 µg/mL (≈ 2.76 µM) and the MIC50 [36] was 0.5 µg/mL (≈ 0.345 µM). It also gave an MIC90 [36] of 1 µg/mL (≈ 0.69 µM), an MIC50 [37] of 256 µg/mL (≈ 177 µM) and an MIC90 [37] of over 1020 µg/mL. For the same compound, the MIC50 [38] was 1 µg/mL (≈ 0.69 µM), the MIC90 [38] was 4 µg/mL (≈ 2.76 µM) and the MIC [39] was 1 µg/mL (≈ 0.69 µM). It also gave an MIC50 [39] of 1 µg/mL (≈ 0.69 µM), an MIC90 [39] of 2 µg/mL (≈ 1.38 µM) and an MIC50 [40] of 1 µg/mL (≈ 0.69 µM). The MIC90 [40] was 4 µg/mL (≈ 2.76 µM), the MIC50 [41] was 0.5 µg/mL (≈ 0.345 µM) and the MIC90 [41] was 1 µg/mL (≈ 0.69 µM). For the same compound, the MIC50 [42] was 1 µg/mL (≈ 0.69 µM), the MIC90 [42] was 4 µg/mL (≈ 2.76 µM) and the MIC50 [43] was 128 µg/mL (≈ 88.3 µM). For the same compound, the MIC90 [43] was 128 µg/mL (≈ 88.3 µM), the MIC50 [44] was 1 µg/mL (≈ 0.69 µM) and the MIC90 [44] was 4 µg/mL (≈ 2.76 µM). For the same compound, the MIC50 [45] was 1 µg/mL (≈ 0.69 µM), the MIC90 [45] was 64 µg/mL (≈ 44.2 µM) and the MIC50 [46] was 1 µg/mL (≈ 0.69 µM). The MIC90 [46] was 4 µg/mL (≈ 2.76 µM), the MIC50 [47] was 1 µg/mL (≈ 0.69 µM) and the MIC90 [47] was 64 µg/mL (≈ 44.2 µM). It also gave an MIC50 [48] of 1 µg/mL (≈ 0.69 µM) and an MIC90 [48] of 4 µg/mL (≈ 2.76 µM).
